Experimental data as given in patent US10131644B2, “Aryl sultam derivatives as RORc modulators” (Genentech, Inc., priority 2014, dated 2018).

Biological target: T1, RORc (Homo sapiens, UniProt P51449)
T1 sequence (P51449 269-508 limits assumed): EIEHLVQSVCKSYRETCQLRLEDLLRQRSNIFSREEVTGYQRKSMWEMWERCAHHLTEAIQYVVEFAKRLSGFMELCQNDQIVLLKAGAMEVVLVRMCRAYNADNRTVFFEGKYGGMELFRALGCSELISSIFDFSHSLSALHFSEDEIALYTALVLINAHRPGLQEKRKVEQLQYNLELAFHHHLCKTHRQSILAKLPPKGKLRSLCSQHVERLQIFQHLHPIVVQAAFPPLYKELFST
Test: In vitro RORc ligand binding assay (25-[3H]hydroxycholesterol displacement)
Conditions: IC50, IC50 values for RORc; unit inferred

Structure (SMILES)	IC50 [nM]
C[C@H]1CC[C@H](c2ccccc2)S(=O)(=O)N1Cc1cc(F)c(C2(C(=O)NCC#N)CCOCC2)cc1F [Compound 100, N-(cyanomethyl)-4[2,5-difluoro-4-[[(3S,6R)-3-methyl-1,1-dioxo-6-phenyl-thiazinan-2-yl]methyl]phenyl]tetrahydropyran-4-carboxamide]	31
C[C@H]1CC[C@H](c2ccccc2)S(=O)(=O)N1Cc1ccc(C2(C#N)CC(F)(F)C2)cc1F [Compound 165, 3,3-difluoro-1-[3-fluoro-4-[[(3S,6R)-3-methyl-1,1-dioxo-6-phenyl-thiazinan-2-yl]methyl]phenyl]cyclobutanecarbonitrile]	52.2
C[C@H]1CC[C@H](c2ccccc2)S(=O)(=O)N1Cc1ccc([C@]2(C#N)CC[C@@H](n3cnnc3)CC2)cc1F [Example 20, 1-[3-Fluoro-4-((3S,6R)-3-methyl-1,1-dioxo-6-phenyl-[1,2]thiazinan-2-ylmethyl)-phenyl]-4-[1,2,4]triazol-4-yl-cyclohexanecarbonitrile]	110
C[C@H]1CC[C@H](c2ccccc2)S(=O)(=O)N1Cc1ccc(C2(C(N)=O)CCC3(CC2)OCCO3)cc1F [Example 22, 8-[3-Fluoro-4-((3S,6R)-3-methyl-1,1-dioxo-6-phenyl-[1,2]thiazinan-2-ylmethyl)-phenyl]-1,4-dioxa-spiro[4.5]decane-8-carboxylic acid amide]	30
C[C@H]1CC[C@H](c2ccccc2)S(=O)(=O)N1Cc1ccc([C@]2(C(N)=O)C[C@H](O)C2)cc1F [Compound 182, 1-[3-fluoro-4-[[(3S,6R)-3-methyl-1,1-dioxo-6-phenyl-thiazinan-2-yl]methyl]phenyl]-3-hydroxy-cyclobutanecarboxamide]	37.3
CNC(=O)CCC1(c2cc(F)c(CN3[C@@H](C)CC[C@H](c4ccccc4)S3(=O)=O)cc2F)CC1 [Compound 146, 3-[1-[2,5-difluoro-4-[[(3S,6R)-3-methyl-1,1-dioxo-6-phenyl-thiazinan-2-yl]methyl]phenyl]cyclopropyl]-N-methyl-propanamide]	32.7
CC(=O)N[C@H]1CC[C@](C#N)(c2ccc(CN3[C@@H](C)CC[C@H](c4ccccc4)S3(=O)=O)c(F)c2)CC1 [Compound 34, N-{4-Cyano-4-[3-fluoro-4-((3S,6R)-3-methyl-1,1-dioxo-6-phenyl-[1,2]thiazinan-2-ylmethyl)-phenyl]-cyclohexyl}-acetamide]	2300
C[C@H]1CC[C@H](c2ccccc2)S(=O)(=O)N1Cc1ccc(C2(CC#N)COC2)cc1F [Compound 105, 2-[3-[3-fluoro-4-[[(3S,6R)-3-methyl-1,1-dioxo-6-phenyl-thiazinan-2-yl]methyl]phenyl]oxetan-3-yl]acetonitrile]	74.9
C[C@H]1CC[C@H](c2ccccc2)S(=O)(=O)N1Cc1cc(F)c(C2(C(N)=O)CC(F)(F)C2)cc1F [Compound 194, 1-[2,5-difluoro-4-[[(3S,6R)-3-methyl-1,1-dioxo-6-phenyl-thiazinan-2-yl]methyl]phenyl]-3,3-difluoro-cyclobutanecarboxamide]	3.05
COC1(OC)CC(C#N)(c2ccc(CN3[C@@H](C)CC[C@H](c4ccccc4)S3(=O)=O)c(F)c2)C1 [Compound 160, 1-[3-fluoro-4-[[(3S,6R)-3-methyl-1,1-dioxo-6-phenyl-thiazinan-2-yl]methyl]phenyl]-3,3-dimethoxy-cyclobutanecarbonitrile]	14.5
CCOC(=O)/C=C/C1(c2ccc(CN3[C@@H](C)CC[C@H](c4ccccc4)S3(=O)=O)c(F)c2)CC1 [Compound 114, ethyl (E)-3-[1-[3-fluoro-4-[[(3S,6R)-3-methyl-1,1-dioxo-6-phenyl-thiazinan-2-yl]methyl]phenyl]cyclopropyl]prop-2-enoate]	53.6
C[C@H]1CC[C@H](c2ccccc2)S(=O)(=O)N1Cc1ccc(C2(C(=O)N(C)C)CCOCC2)cc1 [Compound 35, 4-[4-((3S,6R)-3-Methyl-1,1-dioxo-6-phenyl-[1,2]thiazinan-2-ylmethyl)-phenyl]-tetrahydro-pyran-4-carboxylic acid dimethylamide]	820
CCOC(=O)CCC1(c2cc(F)c(CN3[C@@H](C)CC[C@H](c4ccccc4)S3(=O)=O)cc2F)CC1 [Compound 140, ethyl 3-[1-[2,5-difluoro-4-[[(3S,6R)-3-methyl-1,1-dioxo-6-phenyl-thiazinan-2-yl]methyl]phenyl]cyclopropyl]propanoate]	45.7
COC(=O)C1(c2ccc(CN3C(C)CCC(c4ccccc4)S3(=O)=O)c(F)c2)CCC(n2cnnc2)CC1 (centres unmarked) [Compound 46, methyl 1-(3-fluoro-4-((3-methyl-1,1-dioxido-6-phenyl-1,2-thiazinan-2-yl)methyl)phenyl)-4-(4H-1,2,4-triazol-4-yl)cyclohexanecarboxylate]	54
C[C@H]1CC[C@H](c2ccccc2)S(=O)(=O)N1Cc1cc(F)c(C2(OCC(=O)O)CCOCC2)cc1F [Compound 145, 2-[4-[2,5-difluoro-4-[[(3S,6R)-3-methyl-1,1-dioxo-6-phenyl-thiazinan-2-yl]methyl]phenyl]tetrahydropyran-4-yl]oxyacetic acid]	14.3

Other lines, results leading:

IC50 [nM]	Structure (SMILES)
112	C[C@H]1CC[C@H](c2ccccc2)S(=O)(=O)N1Cc1ccc(C2(NCC(=O)O)CCOCC2)cc1F [Compound 164, 2-[[4-[3-fluoro-4-[[(3S,6R)-3-methyl-1,1-dioxo-6-phenyl-thiazinan-2-yl]methyl]phenyl]tetrahydropyran-4-yl]amino]acetic acid]
8.7	C[C@H]1CC[C@H](c2ccccc2)S(=O)(=O)N1Cc1ccc(C2(/C=C/C#N)CCOCC2)cc1F [Compound 72, (E)-3-[4-[3-fluoro-4-[[(3S,6R)-3-methyl-1,1-dioxo-6-phenyl-thiazinan-2-yl]methyl]phenyl]tetrahydropyran-4-yl]prop-2-enenitrile]
22.6	C[C@H]1CC[C@H](c2ccccc2)S(=O)(=O)N1Cc1ccc(C2(NC[C@H](O)CO)CCOCC2)cc1F [Compound 107, (2S)-3-[[4-[3-fluoro-4-[[(3S,6R)-3-methyl-1,1-dioxo-6-phenyl-thiazinan-2-yl]methyl]phenyl]tetrahydropyran-4-yl]amino]propane-1,2-diol]
36	C[C@H](O)CNC(=O)C1(c2ccc(CN3[C@@H](C)CC[C@H](c4ccccc4)S3(=O)=O)c(F)c2)CCOCC1 [Compound 63, 4-[3-fluoro-4-[[(3S,6R)-3-methyl-1,1-dioxo-6-phenyl-thiazinan-2-yl]methyl]phenyl]-N-[(2S)-2-hydroxypropyl]tetrahydropyran-4-carboxamide]
991	C[C@H]1CC[C@@H](c2ccccc2)S(=O)(=O)N1Cc1ccc(C2(C(=O)NCCO)CCOCC2)cc1F [Compound 47, 4-(3-fluoro-4-(((3S,6S)-3-methyl-1,1-dioxido-6-phenyl-1,2-thiazinan-2-yl)methyl)phenyl)-N-(2-hydroxyethyl)tetrahydro-2H-pyran-4-carboxamide]
39.5	CCOC(=O)C[C@H](O)C1(c2ccc(CN3[C@@H](C)CC[C@H](c4ccccc4)S3(=O)=O)c(F)c2)CCOCC1 [Compound 115, ethyl (3S)-3-[4-[3-fluoro-4-[[(3S,6R)-3-methyl-1,1-dioxo-6-phenyl-thiazinan-2-yl]methyl]phenyl]tetrahydropyran-4-yl]-3-hydroxy-propanoate]
46	C[C@H]1CC[C@H](c2ccccc2)S(=O)(=O)N1Cc1ccc(C2(COCCO)CCOCC2)cc1F [Compound 83, 2-[[4-[3-fluoro-4-[[(3S,6R)-3-methyl-1,1-dioxo-6-phenyl-thiazinan-2-yl]methyl]phenyl]tetrahydropyran-4-yl]methoxy]ethanol]
5	C[C@H]1CC[C@H](c2ccccc2)S(=O)(=O)N1Cc1ccc(C2(OCC(N)=O)CCOCC2)cc1F [Compound 113, 2-[4-[3-fluoro-4-[[(3S,6R)-3-methyl-1,1-dioxo-6-phenyl-thiazinan-2-yl]methyl]phenyl]tetrahydropyran-4-yl]oxyacetamide]
310	C[C@H]1CC[C@H](c2ccccc2)S(=O)(=O)N1Cc1ccc(C2(CO)CCOCC2)cc1 [Compound 32, {4-[4-((3S,6R)-3-Methyl-1,1-dioxo-6-phenyl-[1,2]thiazinan-2-ylmethyl)-phenyl]-tetrahydro-pyran-4-yl}-methanol]
35.2	C[C@H]1CC[C@H](c2ccccc2)S(=O)(=O)N1Cc1ccc(C2([C@@H](O)CCO)CCOCC2)cc1F [Compound 117, (1S)-1-[4-[3-fluoro-4-[[(3S,6R)-3-methyl-1,1-dioxo-6-phenyl-thiazinan-2-yl]methyl]phenyl]tetrahydropyran-4-yl]propane-1,3-diol]
480	COC(=O)C1(c2ccc(CN3[C@@H](C)CC[C@@H](c4ccccc4)S3(=O)=O)c(F)c2)CCOCC1 [Compound 38, 4-[3-Fluoro-4-((3S,6S)-3-methyl-1,1-dioxo-6-phenyl-[1,2]thiazinan-2-ylmethyl)-phenyl]-tetrahydro-pyran-4-carboxylic acid methyl ester]
4.9	CCOC(=O)CCC1(c2ccc(CN3[C@@H](C)CC[C@H](c4ccccc4)S3(=O)=O)c(F)c2)CCOCC1 [Compound 79, ethyl 3-[4-[3-fluoro-4-[[(3S,6R)-3-methyl-1,1-dioxo-6-phenyl-thiazinan-2-yl]methyl]phenyl]tetrahydropyran-4-yl]propanoate]
23.8	CCOC(=O)COCC1(c2ccc(CN3[C@@H](C)CC[C@H](c4ccccc4)S3(=O)=O)c(F)c2)CCOCC1 [Compound 104, ethyl 2-[[4-[3-fluoro-4-[[(3S,6R)-3-methyl-1,1-dioxo-6-phenyl-thiazinan-2-yl]methyl]phenyl]tetrahydropyran-4-yl]methoxy]acetate]
53.2	COC(=O)NCC1(c2ccc(CN3[C@@H](C)CC[C@H](c4ccccc4)S3(=O)=O)c(F)c2)CCOCC1 [Compound 73, methyl N-[[4-[3-fluoro-4-[[(3S,6R)-3-methyl-1,1-dioxo-6-phenyl-thiazinan-2-yl]methyl]phenyl]tetrahydropyran-4-yl]methyl]carbamate]
